Laboratory results from patent US11072780B2, “Method of differentiating human pluripotent cells into cardiac fibroblasts” (Wisconsin Alumni Research Foundation, priority 2016, dated 2021).

Legend:
[1] = tested on: hPSC-derived cardiac mesodermal progenitors; assay: Cardiac fibroblast differentiation induced by bFGF at stage-specific progenitors, flow cytometry at 20 days; format: cell-based
Experimental: (§1) Differentiation of hPSCs to cardiac fibroblasts: Human PSCs were dissociated with 1 ml/well Versene solution (Invitrogen) at 37° C. for 5 minutes, and seeded on Matrigel™ (GFR, BD Biosciences) coated 6-well plates at the density of 1.5×10^6 cells/well in mTeSR1 medium supplemented with 10 μM ROCK inhibitor (Y-27632) (Tocris). Cells were cultured for 5-6 days in mTeSR1 medium with medium change daily until the cells reached 100% confluence when differentiation started (day 0). At day 0, the medium was changed to 2.5 ml RPMI+B27 without insulin (Invitrogen) and supplemented with 12 μM CHIR99021 (Tocris) and cells were treated in this medium for 24 hrs (day 1). At day 1, medium was changed to 3 ml RPMI+B27 without insulin and cells were cultured in this medium for another day (day 2). At day 2, the medium was changed to 2.5 ml of the defined fibroblast culture medium (Table 1) supplemented with bFGF (WiCell). Methods using L-glutamine in place of GlutaMAX were also successful. Cells were fed every other day and cultured until day 20 for flow cytometry analysis and subculture of cardiac fibroblasts.
Flow Cytometry: Cells were detached from cell culture plates by incubation with 0.25% trypsin-EDTA (Invitrogen) plus 2% chick serum (Sigma) for 5 minutes at 37° C. Cells were vortexed to disrupt the aggregates followed by neutralization by adding equal volume of EB20 medium (Zhang et al., Circ Res. 2009). Cells were counted and 0.5-1 million cells were used as the sample size for labeling. Cells were fixed in 1% paraformaldehyde in a 37° C. water bath for 10 minutes in the dark. For labeling intracellular markers, cells were permeabilized in ice-cold 90% methanol for 30 minutes on ice. Cells were washed once in FACS buffer (PBS without Ca/Mg2^+, 0.5% BSA, 0.1% NaN3), centrifuged and resuspended in about 50 μl FACS buffer with (for intracellular markers) or without 0.1% Triton X-100. For labeling surface markers, appropriate amounts of the conjugated antibodies were added according to the manufacturer's instruction to the cells in FACS buffer to make the final volume of 100 μl with FACS buffer, and incubated in the dark for 30 minutes at room temperature. Cells were washed once with 3 ml FACS buffer and resuspended in 300-500 μl FACS buffer for analysis. […] Data were collected on a FACSCalibur™ flow cytometer (Beckton Dickinson) and analyzed using FlowJo™ software.
Our goal was to bias the differentiation to generate cardiac fibroblasts rather than cardiomyocytes. […] Following 20 days of differentiation, cells were analyzed by flow cytometry using a specific fibroblast antibody (mouse anti-human fibroblast, clone TE-7) and an antibody to sarcomeric myosin (MF20) expressed in cardiomyocytes. […]

[2] = tested on: hPSCs; assay: Flow cytometry of stage-specific progenitors in GiWi protocol; format: cell-based, human; details: after 24 hours of treatment
Experimental: Differentiation of hPSCs to cardiomyocytes using GiWi protocol: Human PSCs were dissociated with 1 ml/well Versene solution at 37° C. for 5 minutes, and seeded on Matrigel™ coated 6-well plates at the density of 1.5×10^6 cells/well in mTeSR1 medium supplemented with 10 μM ROCK inhibitor (Y-27632) (Tocris). Cells were cultured for 5-6 days in mTeSR1 medium until the cells reached 100% confluence when differentiation started (day 0). At day 0, the medium was changed to 2.5 ml RPMI+B27 without insulin (Invitrogen) and supplemented with 12 μM CHIR99021 (Tocris) and cells were treated in this medium for 24 hrs (day 1). At day 1, medium was changed to 3 ml RPMI+B27 without insulin and cells were cultured in this medium for 48 hrs (day 3). […]
Flow Cytometry: Cells were detached from cell culture plates by incubation with 0.25% trypsin-EDTA (Invitrogen) plus 2% chick serum (Sigma) for 5 minutes at 37° C. […] Cells were counted and 0.5-1 million cells were used as the sample size for labeling. […] Data were collected on a FACSCalibur™ flow cytometer (Beckton Dickinson) and analyzed using FlowJo™ software.
Biphasic modulation of the Wnt signaling pathway with small molecules is sufficient to direct the differentiation of monolayer cultured hPSCs to cardiomyocytes^21. […] We first determined the stage-specific mesodermal and cardiac progenitor populations generated by this small molecule (GiWi) protocol^22. […]

[3] = tested on: hPSCs; assay: Quantitative RT-PCR time course of GiFGF protocol; format: cell-based, human; details: qRT-PCR, peaking at day 1
Experimental: as §1, with “Cells were fed every other day and cultured until day 20 for flow cytometry analysis and subculture of cardiac fibroblasts.” left out
RT-PCR and quantitative RT-PCR: Cell samples were collected using 0.25% trypsin-EDTA (Invitrogen) to remove the cells from cell culture plates. […] Quantitative RT-PCR (Q-PCR) was performed using Taqman PCR Master Mix and Gene Expression Assays (Applied Biosystems) in triplicate for each sample and each gene. […]

bFGF: fibroblast growth factor (WiCell) added to the defined fibroblast medium
bFGF concentration at which fibroblast marker positive cells peaked ([1]; added on day 2 of differentiation): 75 ng/mL | fibroblast marker positive cells (clone TE-7) ([1]; bFGF 0-125 ng/ml in CFBM, 20 days of differentiation, flow cytometry): concentration-dependent increase | cell death ([1]; higher concentration of bFGF added on day 3 or day 4, after day 6 of differentiation): significant cell death | generation of MF20+ cardiomyocytes ([1]; medium change and bFGF added on day 2 or day 3): effectively prevented

Cc1c[nH]c(-c2cnc(NCCNc3ccc(C#N)cn3)nc2-c2ccc(Cl)cc2Cl)n1 [CHIR, CHIR99021]
Brachyury expression [2]: expressed in almost all cells | early mesodermal gene T expression [3]: transiently up-regulated
